From ChEMBL document CHEMBL1138161, “Structure-activity relationships of alpha-amino acid ligands for the alpha2delta subunit of voltage-gated calcium channels” (Bioorg Med Chem Lett, 2006)

Assays:
[1] = Concentration in rat brain after 0.75 h at 100 umol/kg, po; type: ADME, organism-based; conditions: read-out: Drug uptake
Rattus norvegicus [2] = assay: Potency against persistent inflammatory pain in orally dosed rat CFA model; type: functional; conditions: po
Rattus norvegicus [3] = assay: Maximum efficacy in rat CFA model at 300 umol/kg; type: functional

| Compound | concentration at 0.75 h [1] [ng/g] | ED50 (Rattus norvegicus [2]) [µmol/kg] | Efficacy (Rattus norvegicus [3]) [%] |
| --- | --- | --- | --- |
| NCC1(CC(=O)O)CCCCC1 [GABAPENTIN] | 3410 | 125 | – |
| N[C@@H](CC1CCCCC1)C(=O)O | – | 200 | – |
| NC(CCSCc1ccc(Br)cc1)C(=O)O (stereo not given) | – | > 300 | – |
| NC(C(=O)O)c1cccc(Cl)c1 (stereo not given) | 1760 | – | 64 |
| N[C@@H](CCSCc1ccccc1)C(=O)O | 430 | 120 | – |
| N[C@H](C(=O)O)c1ccccc1 | 6300 | 100 | – |
